Legend:
SIVmac in CEM ×174 cells = assay: SIVmac replication in CEM ×174 cells, reverse transcriptase assay; type: cell-based, SIV; settings: for effect on SIVmac replication in pre-infected cells: cells pre-infected one day prior to treatment
Protocol: CEM ×174 cells (3×10^5 /ml) were infected with 3.75 TCID50 /ml (50% tissue culture infectious dosage per ml of cell suspension) stock solution of SIVmac239 or virus isolates from SIVmac239-infected rhesus macaques on day 0. Uniform infection of cells was ensured by the infection of one cell population only per virus preparation. Three days post-infection, the cells were distributed (500 μl/well) into individual wells of a 24-well plate. Fresh medium containing INO2 BA concentrations ranging from 0 to 300 μM and/or BSO concentrations ranging from 0 to 0.25 mM were added to establish final 1-ml reaction volumes, and the cultures were further incubated for 4 days. The wells were then replenished with fresh CEM ×174 cells (3×10^5 /ml), INO2 BA and/or BSO were re-added at the same concentrations as in the original incubates, and incubation was continued for an additional 3 days. This procedure intends to mimic conditions of in vivo chemotherapy. Cell viability and virus titers in the supernatant were determined on day 10 (3 days after the addition of new cells) by the tetrazolium (MTT) method of Hansen et al., J. Immunol. Methods 119:208-210 (1982) and by the SIV p27 and reverse transcriptase (RT) assays described by Chuang et al., FEBS Lett. 326:140-144 (1993), respectively.
To evaluate the activity of SIV reverse transcriptase, 10 μl of infected cell supernatant was added to a reaction mixture containing 50 mM Tris-HCl (pH 8.0), 5 mM MgCl2, 10 mM dithiothreitol, 20 mM KCl, and 1% Triton X-100 in a total volume of 50 μl. Poly(rA):oligo (dT)12-18 was present at 100 μg/ml and 2.4 μM [^3 H]TTP was used. The reaction mixtures were incubated at 37° C. for 1 hr and the TCA-precipitableradioactivity was filtered onto nitrocellulose filters which were then washed, dried and counted.
The effect of INO2 BA on SIVmac replication in CEM ×174 cells that were pre-infected with virus for one day prior to treatment with INO2 BA are shown in FIG. 6. The cell culture and SIV reverse transcription assay were performed as described in Example XIV.

Molt-4 cells = assay: time course of cell killing alone and with BSO, Molt-4; type: cell-based; settings: Molt-4, 2-3 day period; 4 μM drug, 1 mM BSO
Protocol: (§1) Molt 4-cells were seeded at a density of 0.05×10^6 cell/ml in the recommended growth medium in the absence or the presence of drugs as indicated. Cells were incubated at 37° C. in a 5% CO2 atmosphere and proliferation was monitored in 14 hr. by cell counting in a hemacytometer. .smallcircle., untreated control; .circle-solid., treated with 4 μM 4-iodo-3-nitrobenzoic acid; .gradient., treated with 1 mM BSO; .tangle-soliddn., treated with 4 μM-iodo-3-nitrobenzoic acid and 1 mM BSO; .quadrature., treated with 4 μM 4-INO2 BA; .box-solid., treated with 1 mM BSO; .gradient., treated with 4 μM INO2 BA and 1 mM BSO. L-1210 cells were seeded at a density of 0.05×10^6 cells/ml either from untreated stock suspensions or from 24-hr. pretreated (0.2×10^6 cells/ml) suspensions. .smallcircle., untreated control; .circle-solid., treated with […] NOBA; .gradient., treated with 1 mM BSO; .tangle-soliddn., 24-hr pretreatment with 1 mM BSO then treated with 4 μM NOBA.
(§2) A time course of the cell killings by 4-iodo-3-nitrobenzoic acid, INO2 BA and NOBA, each alone and in combination with BSO was obtained. Molt-4 cells were seeded at a density of 0.05×10^6 cells/ml in the recommended growth medium in the absence or presence of drugs as indicated in FIG. 3. Drugs were added to the wells immediately after seeding from 10-40 mM stock solution in DMSO. BSO was added from a 100 mM aqueous stock solution. Cells were incubated at 37° C. in a 5% CO2 atmosphere and proliferation was monitored in 14 hours by cell counting in a hemacytometer.

AA-2 leukemia cells = assay: cytocidal effect in combination with ascorbate; settings: for protection against apoptosis-inducing action: 160 μM ascorbate, 18 hr of drug exposure; for cell number Day 1 / cell number Day 2: alone or with ascorbate 160 μM; for cell number Day 1: 18 hr; for cell number Day 2: 42 hr
Protocol: Because of the in vitro reactivity of the nitroso group of INOBA with both ascorbate and GSH, the apoptosis-inducing effect of NOBA with the action of the prodrug INO2 BA in the presence of ascorbate, added simultaneously with both drugs was compared.
AA-2 cells were seeded at a density of 0.2×10^6 cells/ml. Drugs and/or sodium ascorbate were added at the time of seeding, and cells were counted by hemacytometer after incubation (37° C., 5% CO^2) for 18 hr (Day 1) and for 42 hr (Day 2). Viability was evaluated by Trypan Blue exclusion.

L-1210 cells = assay: time course of cell killing alone and with BSO, L-1210; type: cell-based, murine; settings: L-1210, 2-3 day period; 1 mM BSO
Protocol: as §1, §2

[1] = tested on: AZT-resistant rhesus macaque (MMU-23740)-derived SIV; settings: cited from earlier work
[2] = reduction by GSH and ascorbate in in vitro chemical tests; type: physicochemical
[3] = tested on: SIV 23686 (AZT-resistant); assay: AZT-resistant SIV propagation (syncytia formation), SIV 23686; type: cell-based; settings: for Syncytia: BSO 0
Protocol: CEM × 174 (3 × 10^5 /ml) were infected with equal doses o
SIVmac239 or virus isolates from SIVmac239infected rhesus macaques (MMU
23686, 22803). Three days postinfection, INO2 BA concentrations
ranging from 0 to 300 μM with or without BSO were added, and incubated
for an additional 3 days. Cell cultures were then examined for syncytia
formation. The number of syncytia in cell cultures was counted in
arbitration fields under 40× magnification and scored as follows: […]

MCF-7 = assay: cytotoxicity of INO2 BA with and without BSO, MCF-7; type: cell-based; settings: Homo sapiens
Protocol: The concentration of BSO was 1 mM for all cell lines except HT 144, where the concentration was 0.25 mM. Cells were seeded in the recommended growth medium at a density of 1.5×10^4 cell/cm^2 into 2 cm^2 wells. Drugs were added simultaneously 4 hours after seeding, and incubation was continued for 48 hours at 37° C. in a 5% CO2 atmosphere. For assessment of drug effects cells were detached by trypsinization and counted in a hemacytometer.
Cell lines Nos. 1-4 were obtained from Dr. C. Benz, University of California, San Francisco. MDA 468 and MCF-7 human mammary cancer lines, MCF-7-B-ADR drug-resistant mammary cancer line, Du 145 drug-resistant human prostate cancer line, HT 144 human melanoma cell line, Hep-G2 human hepatocellular carcinoma line, and PC-12 rat pheochromocytoma line were obtained from the University of California Cell Culture Facility.

[4] = 42 h, read-out: dead cells Day 2

With `NC(=O)c1cccc(N=O)c1` [NOBA, 3-nitrosobenzamide] the “effect on SIVmac replication in pre-infected cells” value (SIVmac in CEM ×174 cells) was “requires pre-incubation with cells prior to viral infection”, the “effect on cell proliferation” value (Molt-4 cells) was “no significant effect” and the “protection against apoptosis-inducing action” value (AA-2 leukemia cells) was “completely protected”. For the same compound, the cytotoxicity at 32 µM (AA-2 leukemia cells; [4]) was 50%, the “cell number Day 1” value (AA-2 leukemia cells; NOBA 32 μM) was 290000 mL⁻¹ and the “cell number Day 2” value (AA-2 leukemia cells; NOBA 32 μM) was 370000 mL⁻¹. For the same compound, the “effect on cell proliferation” value (L-1210 cells) was “no significant effect”, the “inhibition of infectious cycle” value [1] was “equally inhibited” and the “reduction to the corresponding hydroxyl amines” value [2] was “rapidly reduced”.
For `NC(=O)c1ccc(I)c([N+](=O)[O-])c1` [INO2 BA, 4-iodo-3-nitrobenzamide], the Syncytia ([3]; INO2 BA 25 μM) was “++ (10-20)”, the Syncytia ([3]; INO2 BA 50 μM) was “++ (10-20)” and the Syncytia ([3]; INO2 BA 100 μM) was “++ (10-20)”. The Syncytia ([3]; INO2 BA 200 μM) was “+ (1-9)”, the Syncytia ([3]; INO2 BA 300 μM) was “- (0)” and the IC100 ([3]; Simian immunodeficiency virus, 72 h, read-out: INO2 BA concentration abolishing cell fusion (syncytia)) was greater than 200 µM. The “inhibitory concentration of INO2 BA (syncytia)” value ([3]; with 0.01 mM BSO) was 50 µM, the reverse transcriptase activity (SIVmac in CEM ×174 cells; SIV-infected CEM ×174 cells, FIG. 6) was “greatly depressed” and the “effect on SIVmac replication in pre-infected cells” value (SIVmac in CEM ×174 cells) was “effective even when incubated with cells that have been infected”. The IC100 (MCF-7; MCF7, 48 h, read-out: LD100) was 200 µM, the IC50 (MCF-7; MCF7, INO2 BA alone, 48 hours, read-out: I50) was 100 µM and the “effect on cell proliferation” value (Molt-4 cells) was “no significant effect”. For the same compound, the “protection against apoptosis-inducing action” value (AA-2 leukemia cells) was “did not prevent apoptosis”, the cytotoxicity at 16 µM (AA-2 leukemia cells; [4]) was 40% and the “cell number Day 1” value (AA-2 leukemia cells; INO2 BA 16 μM) was 250000 mL⁻¹. For the same compound, the “cell number Day 2” value (AA-2 leukemia cells; INO2 BA 16 μM) was 450000 mL⁻¹ and the “effect on cell proliferation” value (L-1210 cells) was “no significant effect”.

Source: US5877185A, “Synergistic compositions useful as anti-tumor agents” (priority 1995, dated 1999)
